Where two headings read alike, the source gives them in different places.
Assays:
Type in all cases: cell-based
[1] = target: T1, human A2B receptor (Homo sapiens, UniProt P29275); assay: Functional A2B receptor activity, recombinant HEK293 cells, cAMP (HTRF), agonist NECA
T1 construct: expressed in transfected cells; host or cells: HEK293
T1 sequence (P29275 1-332): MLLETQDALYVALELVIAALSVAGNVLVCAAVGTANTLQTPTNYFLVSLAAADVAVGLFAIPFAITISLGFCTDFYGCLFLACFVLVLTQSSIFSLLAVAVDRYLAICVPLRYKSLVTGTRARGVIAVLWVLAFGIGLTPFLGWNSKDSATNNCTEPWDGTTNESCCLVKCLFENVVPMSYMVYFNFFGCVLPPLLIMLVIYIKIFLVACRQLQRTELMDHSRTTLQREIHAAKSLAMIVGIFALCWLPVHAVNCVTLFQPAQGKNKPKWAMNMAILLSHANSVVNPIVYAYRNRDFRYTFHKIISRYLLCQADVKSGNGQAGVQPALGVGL
Procedure, shortened: (§1)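 Intracellular cAMP, the adenosine receptor second messenger, is measured by HTRF following 30 min co-incubation with forskolin, agonist and test compound. Normalization uses DMSO as the neutral control and an inhibitor as the reference control. Fitted curves yield the values.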

[2] = target: T2, human A1 receptor (Homo sapiens, UniProt P30542); assay: Functional A1 receptor activity, recombinant CHO cells, cAMP (HTRF), forskolin, agonist CPA; details: recombinant CHO cells, forskolin, agonist CPA; read-out: Functional A1 receptor activity, CHO, cAMP, IC50
T2 construct: expressed in transfected cells; host or cells: CHO
T2 sequence (P30542 1-326): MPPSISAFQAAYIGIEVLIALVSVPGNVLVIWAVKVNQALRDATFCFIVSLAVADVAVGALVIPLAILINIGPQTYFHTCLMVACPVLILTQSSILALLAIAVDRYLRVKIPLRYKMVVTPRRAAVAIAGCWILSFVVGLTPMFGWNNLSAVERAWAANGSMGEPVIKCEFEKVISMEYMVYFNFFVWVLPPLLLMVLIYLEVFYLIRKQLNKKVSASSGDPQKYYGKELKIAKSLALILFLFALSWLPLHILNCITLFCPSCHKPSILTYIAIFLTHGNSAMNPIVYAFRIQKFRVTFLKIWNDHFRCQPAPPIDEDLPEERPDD
Procedure, shortened: (§2)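 Normalized HTRF cAMP signals (inhibitor and DMSO controls as references) were curve-fitted; assays used forskolin-stimulated CHO cells with A1 or A3, agonist CPA or IB-MECA respectively, 30 min compound incubation.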

[3] = target: T3, human A3 receptor (Homo sapiens, UniProt P0DMS8); assay: Functional A3 receptor activity, recombinant CHO cells, cAMP (HTRF), forskolin, agonist IB-MECA; details: recombinant CHO cells, forskolin, agonist IB-MECA; read-out: Functional A3 receptor activity, CHO, cAMP, IC50
T3 construct: expressed in transfected cells; host or cells: CHO
T3 sequence (P0DMS8 1-318): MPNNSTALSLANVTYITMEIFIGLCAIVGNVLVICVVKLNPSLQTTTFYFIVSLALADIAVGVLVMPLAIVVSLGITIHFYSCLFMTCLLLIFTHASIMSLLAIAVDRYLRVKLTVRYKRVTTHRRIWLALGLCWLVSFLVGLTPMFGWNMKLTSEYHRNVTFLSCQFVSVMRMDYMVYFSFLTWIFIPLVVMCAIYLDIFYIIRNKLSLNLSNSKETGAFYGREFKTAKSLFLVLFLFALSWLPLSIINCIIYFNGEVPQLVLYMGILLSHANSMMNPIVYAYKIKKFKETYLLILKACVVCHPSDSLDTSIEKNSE
Procedure, shortened: as §2

[4] = test system: mouse Pan T cells; assay: mTcell assay, cAMP, agonist NECA; details: Mus musculus, T-cell
Excerpt: Adenosine (Ado) in tumor microenvironment can inhibit T cell activity by signaling through A2A receptors and suppress cytokine secretion by T cells. […] Potential A2A antagonists or A2A/A2B dual antagonists can rescue T cells from this inhibition. Herein, we describe the in vitro system we established using Pan T cells from mouse spleens to screen potential A2A antagonists or A2A/A2B dual antagonists for their activity. The method described involves the use of CD3/CD28 pre-coated beads to stimulate Pan T cells purified from mouse splenocytes, combined with the addition of A2A agonist along with potential A2A or A2A/A2B dual antagonists to evaluate potentiation of T cell cytokine production.
Pan T-cells are isolated from black 6 mice by manual dissociation and purified using a Miltenyi Pan T-cell isolation kit. The isolated T-cells are activated in 96 well plates for 48 hours using anti-CD3/CD28 beads in T-cell proliferation media.
After 48 hours, the T-cells are pooled, counted and suspended in serum free media containing 0.1% BSA. The cells are plated at 50,000 cells per well in 10 ul of media and incubated for 2 hours at 37° C. Test compounds are dispensed into the wells at a 10-point dose response, starting at a concentration of 10 uM. […] The plates are incubated for 30 minutes at 37° C. and assayed for cAMP levels using the Cisbio cAMP Dynamic2 reagent kit by adding 10 ul of the kit reagents to each well. The plates are incubated for 1 hour at room temperature and the HTRF signal is read on an Envision plate reader. The raw data is analyzed in Genedata Screener and the resulting data is loaded into the database.

[5] = target: T4, human A2A receptor (Homo sapiens, UniProt P29274); assay: Functional A2A receptor activity, recombinant HEK293 cells, cAMP (HTRF), agonist NECA; parameters: expressed in transfected cells; host or cells: HEK293
T4 sequence (P29274 whole entry): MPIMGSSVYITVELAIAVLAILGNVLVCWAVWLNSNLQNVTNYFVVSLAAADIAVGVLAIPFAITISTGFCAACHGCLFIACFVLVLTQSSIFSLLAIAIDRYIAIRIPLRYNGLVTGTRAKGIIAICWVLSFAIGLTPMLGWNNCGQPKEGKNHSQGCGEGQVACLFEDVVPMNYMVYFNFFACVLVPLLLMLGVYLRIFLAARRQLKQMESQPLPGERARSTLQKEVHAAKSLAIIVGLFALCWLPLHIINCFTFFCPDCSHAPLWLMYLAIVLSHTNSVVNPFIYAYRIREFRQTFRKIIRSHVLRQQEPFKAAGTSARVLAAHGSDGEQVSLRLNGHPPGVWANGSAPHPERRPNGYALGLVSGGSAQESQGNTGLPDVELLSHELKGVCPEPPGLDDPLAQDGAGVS
Procedure, shortened: as §1

[6] = target: T4, human A2A receptor; assay: Human T cells, endogenous A2A receptor, cAMP, agonist NECA
Procedure: The endogenous functional activity of the Gs-coupled human A2A receptor was measured in T cells, where this receptor is highly expressed. Determination of receptor activity was done by quantification of cAMP, which is a second messenger for adenosine receptors.
In short, human pan T cells were isolated from human PBMC (MACS Pan T Cell Isolation Kit, Miltenyi Biotec) that have been derived from fresh whole blood. The T cells were seeded in 384-well microtiter plates and treated with test compounds. […] Finally, HTRF reagents (cAMP Femto Kit, CisBio) were added to the wells, and after 1 h cellular cAMP levels were determined using the ENVISION (Perkin Elmer) plate reader.
The obtained raw data were normalized against the inhibitor control and the neutral control (DMSO) and the normalized data were fitted using Genedata Screener software.

[7] = read-out: Functional A2B receptor activity, HEK293, cAMP, IC50
[8] = read-out: Functional A2A receptor activity, HEK293, cAMP, IC50
[9] = read-out: hTcell data, cAMP, IC50

Row | SMILES | IC50 [1, 7] [nM] | IC50 [2] [nM] | IC50 [3] [nM] | IC50 [4] [nM] | IC50 [5, 8] [nM] | IC50 [6, 9] [nM] | IC50 [1] [nM] | IC50 [6] [nM] | IC50 [5] [nM]
1 | COc1ncc(-c2ccoc2)c2sc(NC(=O)N3CCC4(CCOCC4)C3)nc12 [Compound 52, 8-Oxa-2-aza-spiro[4.5]decane-2-carboxylic acid (7-furan-3-yl-4-methoxy-thiazolo[4,5-c]pyridin-2-yl)-amide] | < 10 | > 1000 | > 1000 | < 100 | < 10 |  |  |  | 
2 | COc1ncc(-c2cnn(CC(F)F)c2)c2sc(NC(=O)N3CCC4(CCOCC4)C3)nc12 [Compound 74, 8-Oxa-2-aza-spiro[4.5]decane-2-carboxylic acid {7-[1-(2,2-difluoro-ethyl)-1H-pyrazol-4-yl]-4-methoxy-thiazolo[4,5-c]pyridin-2-yl}-amide] | < 100 | < 1000 | > 1000 |  | < 10 | < 100 |  |  | 
3 | COc1ncc(C2COCCO2)c2sc(NC(=O)c3ccc(C(=O)O)cc3)nc12 (stereo not drawn) [Compound 161, N-(7-[1,4]Dioxan-2-yl-4-methoxy-thiazolo[4,5-c]pyridin-2-yl)-terephthalamic acid] | < 100 | > 1000 | > 1000 |  | < 10 | < 100 |  |  | 
4 | COc1ncc(C2COCCO2)c2sc(NC(=O)c3ccc(-c4nnn[nH]4)cc3)nc12 (stereo not drawn) [Compound 164, N-(7-[1,4]Dioxan-2-yl-4-methoxy-thiazolo[4,5-c]pyridin-2-yl)-4-(1H-tetrazol-5-yl)-benzamide] | < 10 | > 1000 | > 1000 |  | < 10 | < 100 |  |  | 
5 | [2H]C([2H])([2H])Oc1ncc(C2=CCOCC2)c2sc(NC(=O)N3CC[C@@]4(CCCOC4)C3)nc12 [Compound 174, (5S)-N-[7-(3,6-dihydro-2H-pyran-4-yl)-4-(2H3)methoxy-[1,3]thiazolo[4,5-c]pyridin-2-yl]-7-oxa-2-azaspiro[4.5]decane-2-carboxamide] |  | > 1000 | > 1000 |  |  |  | < 100 | < 10 | < 10
6 | COc1cnc(N2CCOCC2)c2sc(NC(=O)N3CCC4(CCCO4)CC3)nc12 [drawing 208] |  |  |  | > 1000 |  |  |  |  | 
7 | COc1cnc(C2CCOCC2)c2sc(NC(=O)N3CCC(O)CC3)nc12 [drawing 210] |  |  |  | < 1000 |  |  |  |  | 
8 | COc1ccc(N2CCOCC2)c2sc(NC(=O)N3CCCCC3)nc12 [drawing 211] |  |  |  | < 1000 |  |  |  |  | 

Next, values leading:

Row | IC50 [1, 7] [nM] | IC50 [2] [nM] | IC50 [3] [nM] | IC50 [4] [nM] | IC50 [5, 8] [nM] | IC50 [6, 9] [nM] | IC50 [1] [nM] | IC50 [6] [nM] | IC50 [5] [nM] | SMILES
9 | < 10 | < 1000 | > 1000 |  | < 10 | < 100 |  |  |  | COc1ncc(C2=CCOCC2)c2sc(NC(=O)c3ccc(C(=O)O)cc3)nc12 [Compound 72, 4-{[7-(3,6-dihydro-2H-pyran-4-yl)-4-methoxy-[1,3]thiazolo[4,5-c]pyridin-2-yl]carbamoyl}benzoic acid]
10 | < 100 | > 1000 | > 1000 |  | < 10 | < 10 |  |  |  | COc1ncc(C2=CCOCC2)c2sc(NC(=O)Nc3ccc(N4CCCC4=O)cc3)nc12 [Compound 89, 3-[7-(3,6-dihydro-2H-pyran-4-yl)-4-methoxy-[1,3]thiazolo[4,5-c]pyridin-2-yl]-1-[4-(2-oxopyrrolidin-1-yl)phenyl]urea]
11 | < 10 | > 1000 | > 1000 |  | < 10 | < 10 |  |  |  | COc1ncc(C2=CCOCC2)c2sc(NC(=O)N3CCC(N4C(=O)CSC4=O)CC3)nc12 [Compound 91, N-[7-(3,6-dihydro-2H-pyran-4-yl)-4-methoxy-[1,3]thiazolo[4,5-c]pyridin-2-yl]-4-(2,4-dioxo-1,3-thiazolidin-3-yl)piperidine-1-carboxamide]
12 | < 100 | > 1000 | > 1000 |  | < 10 | < 100 |  |  |  | COC(=O)N(C)Cc1ccc(C(=O)Nc2nc3c(OC)ncc(-c4ccccc4)c3s2)cc1 [Compound 97, [4-(4-Methoxy-7-phenyl-thiazolo[4,5-c]pyridin-2-ylcarbamoyl)-benzyl]-methyl-carbamic acid methyl ester]
13 | < 10 | > 1000 | < 1000 | < 10 | < 10 |  |  |  |  | COc1ncc(-c2cccc(Oc3cnn(C)c3)c2)c2sc(NC(=O)N3CCC4(CCOCC4)C3)nc12 [Compound 147, 8-Oxa-2-aza-spiro[4.5]decane-2-carboxylic acid {4-methoxy-7-[3-(1-methyl-1H-pyrazol-4-yloxy)-phenyl]-thiazolo[4,5-c]pyridin-2-yl}-amide]
14 | < 100 | > 1000 | > 1000 |  | < 10 | < 10 |  |  |  | COc1ncc([C@H]2COCCO2)c2sc(NC(=O)c3ccc(C(=O)O)cc3)nc12 [Compound 170, N-((S)-7-[1,4]Dioxan-2-yl-4-methoxy-thiazolo[4,5-c]pyridin-2-yl)-terephthalamic acid]
15 | < 10 | < 1000 | > 1000 |  | < 10 | < 10 |  |  |  | [2H]C([2H])([2H])Oc1ncc(C2=CCOCC2)c2sc(NC(=O)N3CC[C@]4(CCCOC4)C3)nc12 [Compound 173, (5R)-N-[7-(3,6-dihydro-2H-pyran-4-yl)-4-(2H3)methoxy-[1,3]thiazolo[4,5-c]pyridin-2-yl]-7-oxa-2-azaspiro[4.5]decane-2-carboxamide]
16 |  |  |  | > 1000 |  |  |  |  |  | COc1cnc(N2CCOCC2)c2sc(NC(=O)N3CCC4(CCN(C)C4=O)CC3)nc12 [drawing 205]
17 |  |  |  | > 1000 |  |  |  |  |  | COc1ccc(-c2ccccc2)c2sc(NC(=O)NCCN3CCCCC3)nc12 [drawing 206]
18 |  |  |  | < 1000 |  |  |  |  |  | COc1cnc(N2CCOCC2)c2sc(NC(=O)N3CCC(CO)CC3)nc12 [drawing 207]
19 |  |  |  | < 1000 |  |  |  |  |  | COc1ccc(N2CCOCC2)c2sc(NC(=O)N3CCC4(CCCO4)CC3)nc12 [drawing 209]
20 |  |  |  | < 1000 |  |  |  |  |  | COc1cnc(N2CCOCC2)c2sc(NC(=O)N3CCCCC3)nc12 [drawing 212]
21 |  |  |  | > 1000 |  |  |  |  |  | COc1cnc(N2CCOCC2)c2sc(NC(=O)N3CCOCC3)nc12 [drawing 213]

Reference: US12344623B2, “Thiazolopyridine derivatives as adenosine receptor antagonists” (Merck Patent GmbH, priority 2019, dated 2025)
